Assay: 1-octanol/water partition coefficient (logPow) of the matrix by the high-performance liquid chromatography method, OECD Test Guideline 117
Assay type: physicochemical
Details: HPLC method of OECD Test Guideline 117, matrix for MALDI mass spectrometry
Description: The low polar matrix for MALDI mass spectrometry which can be used in the invention is a low polar matrix having a 1-octanol/water partition coefficient from 4.1 to 4.8 (more preferably from 4.3 to 4.8). The 1-octanol/water partition coefficient of the matrix is a numerical value measured by the high-performance liquid chromatography method described in OECD Test Guideline 117.

For `O=C(O)c1cc(O)ccc1O` [2,5-dihydroxybenzoic acid], the chromatographic logP (1-octanol/water) was 0.6.
In the case of `C/C(C=C(C#N)C#N)=C\c1ccc(C(C)(C)C)cc1` [Trans-2-[3-(4-tert-butylphenyl)-2-methyl-2-propenylidene]malononitrile], the “1-octanol/water partition coefficient (logPow)” value is reported as 4.6.
`N#CC(=Cc1ccc(O)cc1)C(=O)O` [α-cyano-4-hydroxycinnamic acid] showed a chromatographic logP of 0.9.

From US10410851B2, “Matrix-assisted laser desorption mass spectrometry of high molecular weight polyoxyethylene derivative” (NOF CORPORATION, priority 2015, dated 2019)
